Results published in patent US20220251143A1, “NON-HYDROLYZABLE NON-CLEAVABLE, STABLE LINKERS FOR PRECISION THERAPEUTICS AND USES THEREOF” (THE TRUSTEES OF COLUMBIA UNIVERSITY IN THE CITY OF NEW YORK, priority 2019, published 2022).
Bridge positions count the residues as written; N and C are the ends. Square brackets hold non-standard residues; d marks the D form. Peptide text beside a SMILES is read from it. * marks the point of attachment. DM1Mal(CH2)2CO = COc1cc2cc(c1Cl)N(C)C(=O)C[C@H](OC(=O)[C@H](C)N(C)C(=O)CCSC1CC(=O)N(CCC(=O)*)C1=O)[C@]1(C)O[C@H]1[C@H](C)[C@@H]1C[C@@](O)(NC(=O)O1)[C@H](OC)/C=C/C=C(\C)C2; X1 = COc1cc2cc(c1Cl)N(C)C(=O)C[C@H](OC(=O)[C@H](C)N(C)C(=O)CCSC1CC(=O)N(CCCC(=O)*)C1=O)[C@]1(C)O[C@H]1[C@H](C)[C@@H]1C[C@@](O)(NC(=O)O1)[C@H](OC)/C=C/C=C(\C)C2; d2Nal = N[C@H](Cc1ccc2ccccc2c1)C(=O)O; PEG2 = NCCOCCOCCC(=O)O

Legend:
[1] = Stability of aqueous solutions at 4° C.; type: physicochemical; conditions: preliminary studies
From the text: (§1) Conjugate composition comprising DM1 and lanreotide and the non-hydrolyzable, non-cleavable, stable linker GMBS was synthesized as shown in Scheme 1. Briefly, the primary amine of lanreotide was protected with Boc20. The reaction of the second amine group of the protected lanreotide with the NHS ester of GMBS gave the intermediate GMBS-lanreotide. The reaction of the maleimide of GMBS-lanreotide with the sulfhydryl group (—SH) of DM1 gave a protected conjugate. De-protection of the Boc with TFA provided the final product. All compounds were fully characterized and purified to >95% as determined by NMR and LC-MS analyses. The purity of the compound for animal studies is >98%.
as §1, with “PEG” for “GMBS”, “2.” for “1.”, “PEG-lanreotide.” for “GMBS-lanreotide.”, “PEG-lanreotide” for “GMBS-lanreotide”

[2] = system: neuroendocrine prostate cancer (NEPC) organoids; conditions: three days
From the text: A neuroendocrine prostate cancer (NEPC) cell line was used and NEPC organoids were generated.
CellTiter-Glo Luminescent Cell Viability assay measured viable cells. The percentage of viable cells after drug treatment compared to vehicle control (DMSO) was used to generate a dose—response curve.

[3] = system: SSTR2 expression in NEC1 (NCI-H82) cells; assay: SSTR2 expression by quantitative PCR, NEC1; type: cell-based; conditions: within 72 hours, 1 or 3 nanomolar romidepsin or 1 micromolar entinostat
Procedure: (§2) Three neuroendocrine cell lines, NEC1 (NCI—H82), NEC2 (Kelly), and NEC3 (H727), were incubated in media containing 1 or 3 nanomolar romidepsin (EA1) or 1 micromolar entinostat (EA2) or without drug at 37° C. under 5% CO2 for 72-96 hours after which time cellular RNA was harvested and expression of the SSTR determined.
(§3) Somatostatin receptor expression was measured by quantitative PCR using primers for SSTR2.

[4] = system: SSTR2 expression in NEC2 (Kelly) cells; assay: SSTR2 expression by quantitative PCR, NEC2; type: cell-based; conditions: within 72 hours, 1 or 3 nanomolar romidepsin or 1 micromolar entinostat
Procedure: as §2, §3

[5] = system: SSTR2 expression in NEC3 (H727) cells; assay: SSTR2 expression by quantitative PCR, NEC3; type: cell-based; conditions: within 72 hours, 1 or 3 nanomolar romidepsin or 1 micromolar entinostat
Procedure: as §2, §3

Row | SMILES | stability of aqueous solutions [1] | effectiveness compared with conjugate with cleavable, hydrolysable linker (MCC) ([2]; NEPC organoids) | activity in NEPC organoids (viable cells) ([2]; 1 uM to 0.00046 uM) | induction of the somatostatin receptor (SSTR2 expression) [3] | induction of the somatostatin receptor (SSTR2 expression) [4] | induction of the somatostatin receptor (SSTR2 expression) [5]
1 | COc1cc2cc(c1Cl)N(C)C(=O)C[C@H](OC(=O)[C@H](C)N(C)C(=O)CCSC1CC(=O)N(CCC(=O)NCCOCCOCCC(=O)N[C@H](Cc3ccc4ccccc4c3)C(=O)N[C@H]3CSSC[C@H](C(=O)N[C@H](C(N)=O)[C@@H](C)O)NC(=O)[C@H](C(C)C)NC(=O)[C@H](CCCCN)NC(=O)[C@@H](Cc4c[nH]c5ccccc45)NC(=O)[C@H](Cc4ccc(O)cc4)NC3=O)C1=O)[C@]1(C)O[C@H]1[C@H](C)[C@@H]1C[C@@](O)(NC(=O)O1)[C@H](OC)/C=C/C=C(\C)C2 (stereo partly shown) [DM1-PEG-Lanreotide] ({DM1Mal(CH2)2CO-PEG2}-[d2Nal]CY[dW]KV[dC]T-NH2; disulfide 2-7) | stable at 4 °C for months | more effective | effective and active | – | – | –
2 | COc1cc2cc(c1Cl)N(C)C(=O)C[C@H](OC(=O)[C@H](C)N(C)C(=O)CCSC1CC(=O)N(CCCC(=O)N[C@H](Cc3ccc4ccccc4c3)C(=O)N[C@H]3CSSC[C@H](C(=O)N[C@H](C(N)=O)[C@@H](C)O)NC(=O)[C@H](C(C)C)NC(=O)[C@H](CCCCN)NC(=O)[C@@H](Cc4c[nH]c5ccccc45)NC(=O)[C@H](Cc4ccc(O)cc4)NC3=O)C1=O)[C@]1(C)O[C@H]1[C@H](C)[C@@H]1C[C@@](O)(NC(=O)O1)[C@H](OC)/C=C/C=C(\C)C2 (stereo partly shown) [DM1-GMBS-Lanreotide] (X1-[d2Nal]CY[dW]KV[dC]T-NH2; disulfide 2-7) | stable at 4 °C for months | – | – | – | – | –
3 | Nc1ccccc1NC(=O)c1ccc(CNC(=O)OCc2cccnc2)cc1 [entinostat] | – | – | – | Induction of the somatostatin receptor | Induction of the somatostatin receptor | Induction of the somatostatin receptor
